Source: patent US4255183A, “Substituted phenyl urea and herbicides for use in paddy field” (Hokko Chemical Industry Co., Ltd., priority 1977, dated 1981)

How the values were obtained:
paddy rice [1] = assay: Test Example 1: pot test on selectivity, inhibition of paddy rice; assay type: in vivo; conditions: dry weight 30 days after treatment
Description: In a Wagner pot of 1/500 are, paddy field soil (alluvial soil) was placed and 50 seeds of Echinochloa crus-galli var. oryzicola and 30 seeds of paddy rice were seeded in the surface layer of said soil and the submerging depth was kept at about 1 cm. […] After 30 days from the treatment with the chemical, dry weights of Echinochloa crus-galli var. oryzicola and paddy rice were measured and the inhibition rate was calculated with reference to untreated area. [formula]
(§1) The comparative chemicals used, i.e. DCMU and Linuron, were those commercially available, and the comparative chemicals A and B used were prepared according to the process for formulating the compound of this invention.

paddy rice [2] = assay: whole plant or invertebrate; assay type: in vivo, paddy rice (Asahi species); conditions: granule, 30 days; for Inhibition (%) by treatment at 1-leaf stage of E. crus-galli var. oryzicola, paddy rice: rice at 3.5 leaves stage; for Inhibition (%) by treatment at 5-leaf stage of E. crus-galli var. oryzicola, paddy rice: rice at 7 leaves stage
Description: (§2) In a Wagner pot of 1/500 are, paddy field soil (alluvial soil) was placed and 50 seeds of Echinochloa crus-galli var. oryzicola and 30 seeds of paddy rice were seeded in the surface layer of said soil and the submerging depth was kept at about 1 cm. When Echinochloa crus-galli var. oryzicola reached at the one leaf stage and 5-leaf stage, the emulsion of a predetermined concentration, prepared according to Example 4 was added dropwise. After 30 days from the treatment with the chemical, dry weights of Echinochloa crus-galli var. oryzicola and paddy rice were measured and the inhibition rate was calculated with reference to untreated area. [formula]
(§3) In a concrete pot of 1/400 are (50 cm×50 cm), paddy field soil (alluvial soil) was placed and 200 seeds of Echinochloa crus-galli var. oryzicola were seeded in 10 surface layer of said soil and the soil was submerged at about 3 cm depth. Before emergence of Echinochloa crus-galli var. oryzicola, paddy rice at 2.5-leaf stage (Asahi species) was transplanted at the rate of 8 stubs per pot, planting 3 seedlings per stub. At the one-leaf stage (3.5 leaves stage of paddy rice) and 5 leaves stage (7 leaves stage of paddy rice) of Echinochloa crus-galli var. oryzicola, the granule prepared according to Example 1 was applied. […] 30 Days after the treatment with the chemical, examination was made in the similar manner as Test Example 1 to obtain results as shown in Table 2.
(§4) In the table, as the comparative chemicals CPN, Benthiocarb, Molinate and Simetryne, those commercially available were used and the comparative chemicals A and B (as mentioned before) used were prepared according to the process for preparing the compound of this invention.

[3] = system: Echinochloa crus-galli var. oryzicola; assay: Test Example 2: concrete pot test on killing effect, Echinochloa crus-galli var. oryzicola; assay type: in vivo; conditions: granule, 30 days after treatment
Description: as §2, §3, §4

[4] = system: Echinochloa crus-galli var. oryzicola; assay: Test Example 1: pot test on selectivity, inhibition of Echinochloa crus-galli var. oryzicola; assay type: in vivo; conditions: dry weight 30 days after treatment
Description: as §2, §1

| Compound | Inhibition (%) by treatment at 1-leaf stage, paddy rice (paddy rice [1]; 75 g/10 are) [%] | Inhibition (%) by treatment at 5-leaf stage, paddy rice (paddy rice [1]; 75 g/10 are) [%] | Inhibition (%) by treatment at 1-leaf stage, paddy rice (paddy rice [1]; 150 g/10 are) [%] | Inhibition (%) by treatment at 5-leaf stage, paddy rice (paddy rice [1]; 150 g/10 are) [%] | Inhibition (%) by treatment at 1-leaf stage, paddy rice (paddy rice [1]; 300 g/10 are) [%] | Inhibition (%) by treatment at 5-leaf stage, paddy rice (paddy rice [1]; 300 g/10 are) [%] | Inhibition (%) by treatment at 1-leaf stage, paddy rice (paddy rice [1]; 600 g/10 are) [%] | Inhibition (%) by treatment at 5-leaf stage, paddy rice (paddy rice [1]; 600 g/10 are) [%] | Inhibition (%) by treatment at 1-leaf stage, paddy rice (paddy rice [1]; 900 g/10 are) [%] | Inhibition (%) by treatment at 5-leaf stage, paddy rice (paddy rice [1]; 900 g/10 are) [%] | Inhibition (%) by treatment at 1-leaf stage of E. crus-galli var. oryzicola, paddy rice (paddy rice [2]; 100 g/10 are) [%] | Inhibition (%) by treatment at 5-leaf stage of E. crus-galli var. oryzicola, paddy rice (paddy rice [2]; 100 g/10 are) [%] | Inhibition (%) by treatment at 1-leaf stage of E. crus-galli var. oryzicola, paddy rice (paddy rice [2]; 300 g/10 are) [%] | Inhibition (%) by treatment at 5-leaf stage of E. crus-galli var. oryzicola, paddy rice (paddy rice [2]; 300 g/10 are) [%] | Inhibition (%) by treatment at 1-leaf stage of E. crus-galli var. oryzicola, paddy rice (paddy rice [2]; 900 g/10 are) [%] | Inhibition (%) by treatment at 5-leaf stage of E. crus-galli var. oryzicola, paddy rice (paddy rice [2]; 900 g/10 are) [%] | Inhibition (%) by treatment at 1-leaf stage of E. crus-galli var. oryzicola, E. crus-galli var. oryzicola ([3]; 100 g/10 are) [%] | Inhibition (%) by treatment at 5-leaf stage of E. crus-galli var. oryzicola, E. crus-galli var. oryzicola ([3]; 100 g/10 are) [%] | Inhibition (%) by treatment at 1-leaf stage of E. crus-galli var. oryzicola, E. crus-galli var. oryzicola ([3]; 300 g/10 are) [%] | Inhibition (%) by treatment at 5-leaf stage of E. crus-galli var. oryzicola, E. crus-galli var. oryzicola ([3]; 300 g/10 are) [%] | further results |
| --- | --- | --- | --- | --- | --- | --- | --- | --- | --- | --- | --- | --- | --- | --- | --- | --- | --- | --- | --- | --- | --- |
| CC(Cl)=CCOc1ccc(NC(=O)N(C)C)cc1 [Comparative chemical A] | 0 | 0 | 0 | 0 | 0 | 0 | 15 | 0 | 35 | 12 | 0 | 0 | 0 | 0 | 23 | 5 | 100 | 48 | 100 | 72 | Inhibition (%) by treatment at 1-leaf stage of E. crus-galli var. oryzicola, E. crus-galli var. oryzicola ([3]; 900 g/10 are): 100%; Inhibition (%) by treatment at 5-leaf stage of E. crus-galli var. oryzicola, E. crus-galli var. oryzicola ([3]; 900 g/10 are): 98%; Inhibition (%) by treatment at 1-leaf stage, E. crus-galli var. oryzicola ([4]; 75 g/10 are): 87%; Inhibition (%) by treatment at 5-leaf stage, E. crus-galli var. oryzicola ([4]; 75 g/10 are): 37%; Inhibition (%) by treatment at 1-leaf stage, E. crus-galli var. oryzicola ([4]; 150 g/10 are): 100%; Inhibition (%) by treatment at 5-leaf stage, E. crus-galli var. oryzicola ([4]; 150 g/10 are): 67%; Inhibition (%) by treatment at 1-leaf stage, E. crus-galli var. oryzicola ([4]; 300 g/10 are): 100%; Inhibition (%) by treatment at 5-leaf stage, E. crus-galli var. oryzicola ([4]; 300 g/10 are): 82%; Inhibition (%) by treatment at 1-leaf stage, E. crus-galli var. oryzicola ([4]; 600 g/10 are): 100%; Inhibition (%) by treatment at 5-leaf stage, E. crus-galli var. oryzicola ([4]; 600 g/10 are): 95%; Inhibition (%) by treatment at 1-leaf stage, E. crus-galli var. oryzicola ([4]; 900 g/10 are): 100%; Inhibition (%) by treatment at 5-leaf stage, E. crus-galli var. oryzicola ([4]; 900 g/10 are): 100% |
| CNC(=O)Nc1ccc(OCC=C(C)Cl)cc1 [Comparative chemical B] | 0 | 0 | 0 | 0 | 36 | 0 | 60 | 7 | 72 | 26 | 0 | 0 | 0 | 0 | 40 | 7 | 20 | 0 | 75 | 0 | Inhibition (%) by treatment at 1-leaf stage of E. crus-galli var. oryzicola, E. crus-galli var. oryzicola ([3]; 900 g/10 are): 100%; Inhibition (%) by treatment at 5-leaf stage of E. crus-galli var. oryzicola, E. crus-galli var. oryzicola ([3]; 900 g/10 are): 30%; Inhibition (%) by treatment at 1-leaf stage, E. crus-galli var. oryzicola ([4]; 75 g/10 are): 10%; Inhibition (%) by treatment at 5-leaf stage, E. crus-galli var. oryzicola ([4]; 75 g/10 are): 0%; Inhibition (%) by treatment at 1-leaf stage, E. crus-galli var. oryzicola ([4]; 150 g/10 are): 35%; Inhibition (%) by treatment at 5-leaf stage, E. crus-galli var. oryzicola ([4]; 150 g/10 are): 0%; Inhibition (%) by treatment at 1-leaf stage, E. crus-galli var. oryzicola ([4]; 300 g/10 are): 80%; Inhibition (%) by treatment at 5-leaf stage, E. crus-galli var. oryzicola ([4]; 300 g/10 are): 7%; Inhibition (%) by treatment at 1-leaf stage, E. crus-galli var. oryzicola ([4]; 600 g/10 are): 100%; Inhibition (%) by treatment at 5-leaf stage, E. crus-galli var. oryzicola ([4]; 600 g/10 are): 12%; Inhibition (%) by treatment at 1-leaf stage, E. crus-galli var. oryzicola ([4]; 900 g/10 are): 100%; Inhibition (%) by treatment at 5-leaf stage, E. crus-galli var. oryzicola ([4]; 900 g/10 are): 36% |
